Measured values published in US20140094424A1, “MICROBICIDAL COMPOSITIONS AND METHODS OF PRODUCTION USE THEREOF” (priority 2011, published 2014).

Key:
[1] = test system: Pseudomonas aeruginosa (AY); experiment: MBC (minimum bactericidal concentration) test in Wash NEXT reagent; format: cell-based
Method: (§1) The stock organisms were thawed and subbed prior to beginning the MBC test. Molds were subbed to SDA plates one week before, and the bacteria were subbed to TAT agar plates 24 hours prior to the start of the test. All plates were incubated at 32 degrees C.
(§2) Each bacterial organism was inoculated into 40 ml sterile saline in a centrifuge tube to create a density of MacFarland #1. Two serial dilutions of 1:100 were then made, resulting in 10^−2 and 10^−4 concentrations. Each dilution was vortexed before it was sampled, and sterile Eppendorf pipette tips were used to make each transfer. The 10^−4 dilution was spiral plated to yield the initial inoculum concentration.
(§3) MBC trays were set up with the prepared test reagent. Using a Matrix pipettor, 100 μl aliquots of reagent were distributed into the wells, diluting the amount of preservative from 100% to 10% increments, using unpreserved reagent as the diluent. In one row, 100% non-preserved reagent acted as a positive control and served as a benchmark for a full mat of growth. In well #12H, 100 μl unpreserved reagent was pipetted, and this well was not inoculated with organisms, as it served as the negative control. Once all of the trays were prepared, the prepared bacteria/mold suspensions were poured into the MBC inoculating trays. These were placed onto the reagent trays, and 0.01 ml inoculum was introduced into the 100 μl of reagent in each well.
(§4) This was done by dipping a sterile cotton swab into each well, and absorbing all of the liquid in the well. The swab was rolled onto a TAT agar plate ensuring that the entire swab touches the agar. Plates ware incubated at 32 degrees C. for 48 hours to 7 days, depending on the organism. Observations for growth were performed by a scoring matrix using + for a full mat, +/− for some growth, a numerical value for an actual colony count, and—for no growth.
(§5) Below are tables that contain the data obtained in Example 1. The MBC test is scored by (+) indicating a full grown mat of organisms, equivalent to the organisms in the unpreserved reagent. (+/−) indicates there is some kill evident disturbing that mat or bringing the quantities down to an almost countable level. An actual number is the actual number of colonies growing at that concentration of preservative. (−) indicates no growth found. The MBC trays were stored at room temperature for the entire test.
(§6) The materials and methods and analysis of the MBC test were the same as in Example 1.

Gram positive rods (S) = experiment: as above; format: cell-based
Method: as §1, §2, §3, §4, §5, §6

[N-]=[N+]=[N-] [Sodium Azide, sodium azide]
MBC test growth score ([1]; 10% preservative, 8 hour): + | MBC test growth score ([1]; 10% preservative, 24 hour): + | MBC test growth score ([1]; 10% preservative, 48 hour): + | MBC test growth score ([1]; 10% preservative, 72 hour): + | MBC test growth score ([1]; 20% preservative, 8 hour): + | MBC test growth score ([1]; 20% preservative, 24 hour): + | MBC test growth score ([1]; 20% preservative, 48 hour): + | MBC test growth score ([1]; 20% preservative, 72 hour): + | MBC test growth score ([1]; 30% preservative, 8 hour): + | MBC test growth score ([1]; 30% preservative, 24 hour): + | MBC test growth score ([1]; 30% preservative, 48 hour): + | MBC test growth score ([1]; 30% preservative, 72 hour): + | MBC test growth score ([1]; 40% preservative, 8 hour): + | MBC test growth score ([1]; 40% preservative, 24 hour): + | MBC test growth score ([1]; 40% preservative, 48 hour): + | MBC test growth score ([1]; 40% preservative, 72 hour): + | MBC test growth score ([1]; 50% preservative, 8 hour): + | MBC test growth score ([1]; 50% preservative, 24 hour): + | MBC test growth score ([1]; 50% preservative, 48 hour): + | MBC test growth score ([1]; 50% preservative, 72 hour): + | MBC test growth score ([1]; 60% preservative, 8 hour): + | MBC test growth score ([1]; 60% preservative, 24 hour): + | MBC test growth score ([1]; 60% preservative, 48 hour): + | MBC test growth score ([1]; 60% preservative, 72 hour): + | MBC test growth score ([1]; 70% preservative, 8 hour): + | MBC test growth score ([1]; 70% preservative, 24 hour): + | MBC test growth score ([1]; 70% preservative, 48 hour): + | MBC test growth score ([1]; 70% preservative, 72 hour): + | MBC test growth score ([1]; 80% preservative, 8 hour): + | MBC test growth score ([1]; 80% preservative, 24 hour): + | MBC test growth score ([1]; 80% preservative, 48 hour): + | MBC test growth score ([1]; 80% preservative, 72 hour): + | MBC test growth score ([1]; 90% preservative, 8 hour): + | MBC test growth score ([1]; 90% preservative, 24 hour): + | MBC test growth score ([1]; 90% preservative, 48 hour): + | MBC test growth score ([1]; 90% preservative, 72 hour): + | MBC test growth score ([1]; 100% preservative, 8 hour): + | MBC test growth score ([1]; 100% preservative, 24 hour): + | MBC test growth score ([1]; 100% preservative, 48 hour): + | MBC test growth score ([1]; 100% preservative, 72 hour): + | total kill at % preservative (MBC) ([1]; at 72 hours, listed as Na Azide): No kill @ 100% | MBC test growth score (Gram positive rods (S); 10% preservative, 8 hour): + | MBC test growth score (Gram positive rods (S); 10% preservative, 24 hour): + | MBC test growth score (Gram positive rods (S); 10% preservative, 48 hour): + | MBC test growth score (Gram positive rods (S); 10% preservative, 72 hour): + | MBC test growth score (Gram positive rods (S); 10% preservative, 7 day): + | MBC test growth score (Gram positive rods (S); 10% preservative, 14 day): + | MBC test growth score (Gram positive rods (S); 20% preservative, 8 hour): + | MBC test growth score (Gram positive rods (S); 20% preservative, 24 hour): + | MBC test growth score (Gram positive rods (S); 20% preservative, 48 hour): + | MBC test growth score (Gram positive rods (S); 20% preservative, 72 hour): + | MBC test growth score (Gram positive rods (S); 20% preservative, 7 day): + | MBC test growth score (Gram positive rods (S); 20% preservative, 14 day): + | MBC test growth score (Gram positive rods (S); 30% preservative, 8 hour): + | MBC test growth score (Gram positive rods (S); 30% preservative, 24 hour): + | MBC test growth score (Gram positive rods (S); 30% preservative, 48 hour): + | MBC test growth score (Gram positive rods (S); 30% preservative, 72 hour): + | MBC test growth score (Gram positive rods (S); 30% preservative, 7 day): + | MBC test growth score (Gram positive rods (S); 30% preservative, 14 day): + | MBC test growth score (Gram positive rods (S); 40% preservative, 8 hour): + | MBC test growth score (Gram positive rods (S); 40% preservative, 24 hour): + | MBC test growth score (Gram positive rods (S); 40% preservative, 48 hour): + | MBC test growth score (Gram positive rods (S); 40% preservative, 72 hour): + | MBC test growth score (Gram positive rods (S); 40% preservative, 7 day): + | MBC test growth score (Gram positive rods (S); 40% preservative, 14 day): + | MBC test growth score (Gram positive rods (S); 50% preservative, 8 hour): + | MBC test growth score (Gram positive rods (S); 50% preservative, 24 hour): + | MBC test growth score (Gram positive rods (S); 50% preservative, 48 hour): + | MBC test growth score (Gram positive rods (S); 50% preservative, 72 hour): + | MBC test growth score (Gram positive rods (S); 50% preservative, 7 day): + | MBC test growth score (Gram positive rods (S); 50% preservative, 14 day): + | MBC test growth score (Gram positive rods (S); 60% preservative, 8 hour): + | MBC test growth score (Gram positive rods (S); 60% preservative, 24 hour): + | MBC test growth score (Gram positive rods (S); 60% preservative, 48 hour): + | MBC test growth score (Gram positive rods (S); 60% preservative, 72 hour): + | MBC test growth score (Gram positive rods (S); 60% preservative, 7 day): + | MBC test growth score (Gram positive rods (S); 60% preservative, 14 day): + | MBC test growth score (Gram positive rods (S); 70% preservative, 8 hour): + | MBC test growth score (Gram positive rods (S); 70% preservative, 24 hour): + | MBC test growth score (Gram positive rods (S); 70% preservative, 48 hour): + | MBC test growth score (Gram positive rods (S); 70% preservative, 72 hour): + | MBC test growth score (Gram positive rods (S); 70% preservative, 7 day): + | MBC test growth score (Gram positive rods (S); 70% preservative, 14 day): + | MBC test growth score (Gram positive rods (S); 80% preservative, 8 hour): + | MBC test growth score (Gram positive rods (S); 80% preservative, 24 hour): + | MBC test growth score (Gram positive rods (S); 80% preservative, 48 hour): + | MBC test growth score (Gram positive rods (S); 80% preservative, 72 hour): + | MBC test growth score (Gram positive rods (S); 80% preservative, 7 day): + | MBC test growth score (Gram positive rods (S); 80% preservative, 14 day): + | MBC test growth score (Gram positive rods (S); 90% preservative, 8 hour): + | MBC test growth score (Gram positive rods (S); 90% preservative, 24 hour): + | MBC test growth score (Gram positive rods (S); 90% preservative, 48 hour): + | MBC test growth score (Gram positive rods (S); 90% preservative, 72 hour): + | MBC test growth score (Gram positive rods (S); 90% preservative, 7 day): + | MBC test growth score (Gram positive rods (S); 90% preservative, 14 day): + | MBC test growth score (Gram positive rods (S); 100% preservative, 8 hour): + | MBC test growth score (Gram positive rods (S); 100% preservative, 24 hour): + | MBC test growth score (Gram positive rods (S); 100% preservative, 48 hour): + | MBC test growth score (Gram positive rods (S); 100% preservative, 72 hour): + | MBC test growth score (Gram positive rods (S); 100% preservative, 7 day): + | MBC test growth score (Gram positive rods (S); 100% preservative, 14 day): + | total kill at % preservative (MBC) (Gram positive rods (S); at 14 days, listed as Na Azide): No kill @ 100%
